In experiment [1] the target is Dual specificity mitogen-activated protein kinase kinase 1 (Homo sapiens, UniProt Q02750). The settings on record: at 10 µM.
In experiment [2] the target is Mitogen-activated protein kinase 4 (Homo sapiens) (UniProt P31152). Briefly: Selectivity interaction (Ambit KINOMEscan and KiNATiv profiling in Jurkat cells) EUB0000090b MAPK4. In kind it is cell-based. The settings on record: at 1 µM.
Experiment [3] addresses Glycogen synthase kinase-3 beta (Homo sapiens, UniProt P49841). Briefly: Selectivity interaction (Ambit KINOMEscan and KiNATiv profiling in Jurkat cells) EUB0000090b GSK3B. In kind it is cell-based. The following applies: at 1 µM.
In experiment [4] the target is T1, Serine/threonine-protein kinase DCLK2 (Homo sapiens) (UniProt Q8N568).
T1 sequence (whole entry): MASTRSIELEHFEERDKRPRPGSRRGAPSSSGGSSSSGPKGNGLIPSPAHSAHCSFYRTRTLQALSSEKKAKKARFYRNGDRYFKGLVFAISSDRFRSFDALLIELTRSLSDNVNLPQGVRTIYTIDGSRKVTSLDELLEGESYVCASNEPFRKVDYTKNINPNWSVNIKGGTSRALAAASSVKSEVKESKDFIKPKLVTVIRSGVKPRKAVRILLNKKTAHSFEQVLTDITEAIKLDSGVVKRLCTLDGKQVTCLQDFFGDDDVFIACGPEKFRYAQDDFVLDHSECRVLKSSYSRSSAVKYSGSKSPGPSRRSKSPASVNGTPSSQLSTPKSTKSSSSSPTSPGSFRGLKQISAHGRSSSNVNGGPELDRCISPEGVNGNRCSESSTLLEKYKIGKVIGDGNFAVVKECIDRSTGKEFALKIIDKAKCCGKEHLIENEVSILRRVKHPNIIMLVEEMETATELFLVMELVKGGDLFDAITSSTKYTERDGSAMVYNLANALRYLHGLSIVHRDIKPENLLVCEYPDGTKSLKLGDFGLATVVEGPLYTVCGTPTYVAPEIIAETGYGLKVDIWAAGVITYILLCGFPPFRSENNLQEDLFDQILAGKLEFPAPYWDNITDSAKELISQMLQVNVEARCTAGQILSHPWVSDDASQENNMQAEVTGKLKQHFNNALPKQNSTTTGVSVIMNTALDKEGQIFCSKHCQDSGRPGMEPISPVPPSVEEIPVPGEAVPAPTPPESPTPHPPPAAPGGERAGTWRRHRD
Put plainly: Selectivity interaction (Kinase panel (Z-LYTE Assay)) EUB0001632a DCLK2. The following applies: at 10 µM.

The target in experiment [5] is Tyrosine-protein kinase JAK1 (Homo sapiens, UniProt P23458). Briefly: Selectivity interaction (KinomeScan (DiscoverX)) EUB0000607a JAK1. The following applies: at 10 µM.
Chain of Tyrosine-protein kinase JAK1 (P23458 whole entry): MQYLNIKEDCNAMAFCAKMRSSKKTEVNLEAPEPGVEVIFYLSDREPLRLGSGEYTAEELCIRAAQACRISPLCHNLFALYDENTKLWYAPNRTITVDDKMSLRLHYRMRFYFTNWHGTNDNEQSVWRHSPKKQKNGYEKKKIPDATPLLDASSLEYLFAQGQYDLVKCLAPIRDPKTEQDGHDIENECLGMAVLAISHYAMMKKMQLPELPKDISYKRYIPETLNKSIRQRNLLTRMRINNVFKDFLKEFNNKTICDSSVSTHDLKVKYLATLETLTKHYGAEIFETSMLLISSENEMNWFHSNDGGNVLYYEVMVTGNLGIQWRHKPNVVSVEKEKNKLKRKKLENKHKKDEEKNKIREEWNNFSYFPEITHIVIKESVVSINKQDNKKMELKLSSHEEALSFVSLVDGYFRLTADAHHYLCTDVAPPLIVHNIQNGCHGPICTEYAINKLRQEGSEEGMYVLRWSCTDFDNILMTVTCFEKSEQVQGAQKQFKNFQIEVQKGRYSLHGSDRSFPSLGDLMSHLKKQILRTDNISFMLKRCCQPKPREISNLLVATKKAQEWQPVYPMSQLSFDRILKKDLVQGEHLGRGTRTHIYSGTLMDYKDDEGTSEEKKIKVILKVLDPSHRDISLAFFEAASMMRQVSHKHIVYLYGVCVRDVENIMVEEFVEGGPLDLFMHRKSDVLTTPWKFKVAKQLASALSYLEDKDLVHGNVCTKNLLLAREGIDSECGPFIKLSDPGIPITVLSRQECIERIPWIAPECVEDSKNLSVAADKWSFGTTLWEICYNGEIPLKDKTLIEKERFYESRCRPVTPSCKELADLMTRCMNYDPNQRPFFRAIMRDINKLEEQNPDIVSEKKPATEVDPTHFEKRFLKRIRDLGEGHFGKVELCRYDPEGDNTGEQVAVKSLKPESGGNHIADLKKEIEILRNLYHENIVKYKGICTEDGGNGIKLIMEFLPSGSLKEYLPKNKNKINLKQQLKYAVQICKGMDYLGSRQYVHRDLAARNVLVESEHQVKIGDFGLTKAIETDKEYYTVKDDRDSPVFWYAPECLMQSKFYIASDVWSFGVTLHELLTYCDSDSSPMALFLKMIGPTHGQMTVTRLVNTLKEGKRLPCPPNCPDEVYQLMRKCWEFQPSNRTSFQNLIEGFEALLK
Experiment [6] addresses T2, Inhibitor of nuclear factor kappa-B kinase subunit beta (Homo sapiens) (UniProt O14920).
T2 sequence (whole entry): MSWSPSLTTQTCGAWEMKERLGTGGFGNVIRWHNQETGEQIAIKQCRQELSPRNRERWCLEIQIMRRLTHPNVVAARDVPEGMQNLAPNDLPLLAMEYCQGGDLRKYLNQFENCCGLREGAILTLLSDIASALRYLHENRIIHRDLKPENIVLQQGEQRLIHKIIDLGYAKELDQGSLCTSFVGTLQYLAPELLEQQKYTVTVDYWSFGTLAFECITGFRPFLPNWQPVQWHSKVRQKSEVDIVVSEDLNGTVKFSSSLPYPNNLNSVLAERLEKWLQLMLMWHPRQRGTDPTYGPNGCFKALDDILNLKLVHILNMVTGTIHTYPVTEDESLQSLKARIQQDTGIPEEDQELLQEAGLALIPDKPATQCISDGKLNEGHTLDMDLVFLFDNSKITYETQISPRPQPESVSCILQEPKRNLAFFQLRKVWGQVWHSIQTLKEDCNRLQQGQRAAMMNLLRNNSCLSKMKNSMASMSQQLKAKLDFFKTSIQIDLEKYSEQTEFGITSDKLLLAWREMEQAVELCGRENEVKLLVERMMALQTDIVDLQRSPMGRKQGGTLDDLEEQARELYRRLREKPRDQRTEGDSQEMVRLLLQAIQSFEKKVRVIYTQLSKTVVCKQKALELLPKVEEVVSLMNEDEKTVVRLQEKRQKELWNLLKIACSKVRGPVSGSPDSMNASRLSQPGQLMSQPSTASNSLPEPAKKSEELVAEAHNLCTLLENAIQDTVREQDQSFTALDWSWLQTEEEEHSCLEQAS
Briefly: Selectivity interaction (ActivX KiNativ screen (kinase selectivity in THP-1 cell lysates)) EUB0000639a IKBKB. Format: subcellular. The settings on record: lysate, at 5 µM.

In experiment [7] the target is T3, Activin receptor type-1 (Homo sapiens) (UniProt Q04771).
T3 sequence (whole entry): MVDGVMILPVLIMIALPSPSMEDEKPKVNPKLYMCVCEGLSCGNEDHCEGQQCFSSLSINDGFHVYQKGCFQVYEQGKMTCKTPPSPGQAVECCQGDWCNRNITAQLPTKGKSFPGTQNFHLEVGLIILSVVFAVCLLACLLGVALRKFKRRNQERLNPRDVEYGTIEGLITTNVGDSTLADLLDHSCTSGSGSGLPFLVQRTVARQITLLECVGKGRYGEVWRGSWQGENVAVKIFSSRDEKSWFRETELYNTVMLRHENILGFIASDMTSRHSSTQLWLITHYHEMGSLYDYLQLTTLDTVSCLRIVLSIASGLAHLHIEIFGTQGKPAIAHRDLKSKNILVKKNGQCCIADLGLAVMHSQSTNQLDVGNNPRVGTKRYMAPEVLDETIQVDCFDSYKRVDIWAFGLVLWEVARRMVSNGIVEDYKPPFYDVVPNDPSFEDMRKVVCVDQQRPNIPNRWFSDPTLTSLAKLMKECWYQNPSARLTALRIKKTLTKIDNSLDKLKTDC
Put plainly: Selectivity interaction (KinomeScan (DiscoverX)) EUB0000595a ACVR1. The settings on record: at 10 µM.

Experiment [8] deals with Cyclin-dependent kinase 13 (Homo sapiens, UniProt Q14004). Put plainly: Selectivity interaction (KinomeScan (DiscoverX)) EUB0000618a CDK13. The following applies: at 10 µM.
Chain of Cyclin-dependent kinase 13 (Q14004 whole entry, looked up): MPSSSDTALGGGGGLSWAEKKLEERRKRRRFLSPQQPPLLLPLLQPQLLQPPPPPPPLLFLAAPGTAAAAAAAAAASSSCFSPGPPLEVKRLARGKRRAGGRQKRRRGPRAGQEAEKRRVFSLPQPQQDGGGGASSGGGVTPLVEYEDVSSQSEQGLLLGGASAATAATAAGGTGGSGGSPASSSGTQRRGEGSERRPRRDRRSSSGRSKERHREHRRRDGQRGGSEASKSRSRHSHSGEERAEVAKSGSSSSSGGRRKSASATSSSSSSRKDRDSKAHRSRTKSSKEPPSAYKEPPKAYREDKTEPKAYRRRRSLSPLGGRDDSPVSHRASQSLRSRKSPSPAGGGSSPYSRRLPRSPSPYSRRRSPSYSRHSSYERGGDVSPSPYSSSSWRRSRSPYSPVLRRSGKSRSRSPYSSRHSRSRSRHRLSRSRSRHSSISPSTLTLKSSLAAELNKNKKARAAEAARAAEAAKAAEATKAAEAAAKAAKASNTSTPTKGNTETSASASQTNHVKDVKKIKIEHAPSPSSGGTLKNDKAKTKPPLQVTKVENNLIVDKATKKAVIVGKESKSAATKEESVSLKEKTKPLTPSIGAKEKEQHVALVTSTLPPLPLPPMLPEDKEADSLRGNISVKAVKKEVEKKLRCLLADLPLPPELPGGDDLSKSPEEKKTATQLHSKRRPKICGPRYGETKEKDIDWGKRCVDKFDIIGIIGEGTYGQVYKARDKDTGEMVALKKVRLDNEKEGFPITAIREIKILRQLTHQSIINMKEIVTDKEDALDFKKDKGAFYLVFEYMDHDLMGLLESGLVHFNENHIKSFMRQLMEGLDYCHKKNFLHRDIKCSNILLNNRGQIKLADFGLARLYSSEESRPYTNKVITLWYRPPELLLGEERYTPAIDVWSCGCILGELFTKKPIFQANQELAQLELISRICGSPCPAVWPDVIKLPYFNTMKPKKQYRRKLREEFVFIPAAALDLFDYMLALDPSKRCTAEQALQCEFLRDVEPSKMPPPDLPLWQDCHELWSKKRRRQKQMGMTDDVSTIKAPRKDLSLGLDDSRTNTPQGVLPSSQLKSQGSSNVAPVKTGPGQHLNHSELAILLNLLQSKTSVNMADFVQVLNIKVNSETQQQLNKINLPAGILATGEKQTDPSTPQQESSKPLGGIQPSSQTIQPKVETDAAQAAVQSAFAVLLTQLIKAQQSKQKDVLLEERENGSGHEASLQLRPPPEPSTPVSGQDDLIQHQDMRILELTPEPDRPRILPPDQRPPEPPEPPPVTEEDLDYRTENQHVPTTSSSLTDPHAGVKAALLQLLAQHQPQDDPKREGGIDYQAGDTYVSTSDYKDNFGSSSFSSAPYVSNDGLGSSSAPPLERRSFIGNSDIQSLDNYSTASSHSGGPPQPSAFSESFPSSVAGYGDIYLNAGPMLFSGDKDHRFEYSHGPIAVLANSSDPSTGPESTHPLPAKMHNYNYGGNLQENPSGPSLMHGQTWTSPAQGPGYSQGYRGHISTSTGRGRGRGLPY

Chain of Mitogen-activated protein kinase 4 (Homo sapiens) (P31152 whole entry): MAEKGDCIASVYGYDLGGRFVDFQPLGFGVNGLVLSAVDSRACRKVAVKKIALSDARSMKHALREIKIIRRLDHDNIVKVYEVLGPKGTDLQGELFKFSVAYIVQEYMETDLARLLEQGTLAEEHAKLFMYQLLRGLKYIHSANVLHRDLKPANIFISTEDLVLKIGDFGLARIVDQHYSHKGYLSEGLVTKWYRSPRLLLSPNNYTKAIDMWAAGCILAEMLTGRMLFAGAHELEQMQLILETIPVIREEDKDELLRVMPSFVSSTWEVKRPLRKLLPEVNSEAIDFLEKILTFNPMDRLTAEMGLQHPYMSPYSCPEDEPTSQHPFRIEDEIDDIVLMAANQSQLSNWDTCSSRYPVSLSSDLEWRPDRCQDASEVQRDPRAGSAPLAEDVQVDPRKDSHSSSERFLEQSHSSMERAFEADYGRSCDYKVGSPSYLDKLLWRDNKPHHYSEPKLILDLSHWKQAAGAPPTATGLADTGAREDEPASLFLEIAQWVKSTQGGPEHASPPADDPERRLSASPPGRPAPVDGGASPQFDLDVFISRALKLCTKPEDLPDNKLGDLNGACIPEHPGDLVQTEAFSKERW
Chain of Glycogen synthase kinase-3 beta (P49841 whole entry, looked up): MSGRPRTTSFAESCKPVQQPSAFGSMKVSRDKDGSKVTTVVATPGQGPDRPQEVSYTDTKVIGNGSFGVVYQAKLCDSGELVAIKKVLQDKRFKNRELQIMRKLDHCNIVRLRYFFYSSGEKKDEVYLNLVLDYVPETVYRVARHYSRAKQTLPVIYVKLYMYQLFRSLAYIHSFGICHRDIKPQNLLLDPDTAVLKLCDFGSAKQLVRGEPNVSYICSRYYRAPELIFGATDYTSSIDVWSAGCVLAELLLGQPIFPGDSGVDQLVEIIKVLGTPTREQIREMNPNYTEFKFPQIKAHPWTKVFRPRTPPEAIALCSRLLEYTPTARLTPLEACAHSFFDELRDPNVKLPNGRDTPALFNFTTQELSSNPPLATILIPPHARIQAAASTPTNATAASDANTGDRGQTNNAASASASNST
Chain of Dual specificity mitogen-activated protein kinase kinase 1 (Q02750 whole entry): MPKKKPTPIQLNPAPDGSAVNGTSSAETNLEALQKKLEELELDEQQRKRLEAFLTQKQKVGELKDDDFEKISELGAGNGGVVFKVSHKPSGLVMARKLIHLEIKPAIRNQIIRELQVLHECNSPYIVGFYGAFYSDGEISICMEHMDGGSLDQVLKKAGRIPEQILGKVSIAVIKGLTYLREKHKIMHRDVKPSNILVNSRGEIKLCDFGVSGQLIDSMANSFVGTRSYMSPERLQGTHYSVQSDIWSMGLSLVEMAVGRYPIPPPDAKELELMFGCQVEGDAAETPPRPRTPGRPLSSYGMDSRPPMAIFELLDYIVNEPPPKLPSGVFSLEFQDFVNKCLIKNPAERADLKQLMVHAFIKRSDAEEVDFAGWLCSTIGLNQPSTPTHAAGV

For the compound `Cc1cc([C@@H](C)Nc2ccccc2C(=O)O)c2nc(N3CCOCC3)cc(=O)n2c1` [AZD-6482], the % of control in experiment [1] was 89%.

Consider `CN(C)C/C=C/C(=O)Nc1ccc(C(=O)N2CCCC(Nc3ncc(Cl)c(-c4c[nH]c5ccccc45)n3)C2)cc1` (stereo not drawn), for which the % of control in experiment [2] was 64%; in experiment [3], 38%.

As for `Cn1cc(-n2cnc3c(NCc4nc5cc(Cl)c(Cl)cc5[nH]4)nc(N4CCOCC4)nc32)cn1`, in experiment [4], the % of control was -1.8%.

For the compound `CNC(=O)Nc1ccc(-c2nc(N3CC4CCC(C3)O4)c3cnn(C4CCC5(CC4)OCCO5)c3n2)cc1`, the % of control in experiment [5] is 83%.

On to `CC[C@@H]1[C@H](F)C(=O)N[C@@H]1COc1nccc2cc(C(N)=O)c(OC)cc12` [ZIMLOVISERTIB], for which, in experiment [6], the % of inhibition was -9.2%.

In the case of `COCC(=O)NC/C=C/c1ccc2ncnc(Nc3ccc(Oc4ccc(C)nc4)c(C)c3)c2c1` [CP-724714], the % of control in experiment [7] came out at 90%.

For the compound `O[C@H]1CC[C@H](Nc2ncc3nc(Nc4c(F)cc(F)cc4F)n([C@H]4CCOC4)c3n2)CC1`, in experiment [8], the % of control is 90%.
